Values belong to the compound of their own block, whether it stands above or below them. Activity calls are given as the source filed them. The calls are words filed in the database; no cut-off is given here.
Experiments:
[1] = AUCt in cannulated Sprague Dawley rat at 10 mg/kg administered through oral gavage by LC/MS/MS analysis; format: ADME, organism-based; conditions: in vivo
EML4-ALK (Homo sapiens) = EML4-ALK (Homo sapiens) (UniProt Q9UM73+Q9HC35); assay: Inhibition of EML4-ALK in human NCI-H3122 cells assessed as inhibition of cell proliferation after 72 hrs by SRB assay; format: cell-based
[2] = molecular target: Serine/threonine-protein kinase N2 (Homo sapiens) (UniProt Q16513); assay: Inhibition of human PRK2 at 1 uM after 30 mins by fluorescence assay in presence of ATP
[3] = molecular target: Focal adhesion kinase 1 (Homo sapiens) (UniProt Q05397); assay: Inhibition of human FAK at 1 uM after 30 mins by fluorescence assay in presence of ATP
[4] = Tmax in cannulated Sprague Dawley rat at 10 mg/kg administered through oral gavage by LC/MS/MS analysis; format: ADME, organism-based; conditions: in vivo
[5] = molecular target: Tyrosine-protein kinase receptor UFO (Homo sapiens) (UniProt P30530); assay: Inhibition of human AXL at 1 uM after 30 mins by fluorescence assay in presence of ATP
[6] = molecular target: Serine/threonine-protein kinase 10 (Homo sapiens) (UniProt O94804); assay: Inhibition of human LOK at 1 uM after 30 mins by fluorescence assay in presence of ATP
[7] = molecular target: Serine/threonine-protein kinase TAO1 (Homo sapiens) (UniProt Q7L7X3); assay: Inhibition of human TAO1 at 1 uM after 30 mins by fluorescence assay in presence of ATP
NCI-H3122 [8] = assay: Antitumor activity against human NCI-H3122 cells xenografted in SCID mouse assessed as tumor growth inhibition at 25 mg/kg, po administered qd for 14 days; format: functional, organism-based
[9] = molecular target: Testis-specific serine/threonine-protein kinase 1 (Homo sapiens) (UniProt Q9BXA7); assay: Inhibition of human TSSK1 at 1 uM after 30 mins by fluorescence assay in presence of ATP
[10] = Metabolic stability of the compound in mouse liver microsomes assessed as compound remaining at 1 uM after 30 mins by LC/MS/MS analysis in the presence of NADPH; format: ADME; conditions: read-out: Stability
[11] = molecular target: High affinity nerve growth factor receptor (Homo sapiens) (UniProt P04629); assay: Inhibition of human TRKA at 1 uM after 30 mins by fluorescence assay in presence of ATP
[12] = Half life in cannulated Sprague Dawley rat at 10 mg/kg administered through oral gavage by LC/MS/MS analysis; format: ADME, organism-based; conditions: in vivo
BaF3 = assay: Inhibition of ALK L1196M mutant in mouse BA/F3 cells assessed as inhibition of cell proliferation after 72 hrs by WST1 assay; format: cell-based
CYP2C19 = CYP2C19 (Homo sapiens, UniProt P33261); assay: Inhibition of CYP2C19 (unknown origin) at 10 uM; format: ADME
[13] = molecular target: NUAK family SNF1-like kinase 1 (Homo sapiens) (UniProt O60285); assay: Inhibition of human ARK5 at 1 uM after 30 mins by fluorescence assay in presence of ATP
[14] = molecular target: Proto-oncogene tyrosine-protein kinase ROS (Homo sapiens) (UniProt P08922); assay: Inhibition of human ROS at 1 uM after 30 mins by fluorescence assay in presence of ATP
CYP2D6 = CYP2D6 (Homo sapiens, UniProt P10635); assay: Inhibition of CYP2D6 (unknown origin) at 10 uM; format: ADME
Mus musculus [15] = assay: Toxicity in SCID mouse xenografted with human H3122 cells assessed as change in body weight at 25 mg/kg, po administered qd for 14 days measured during compound dosing; format: organism-based; conditions: in vivo, 336 h
[16] = molecular target: Insulin receptor (Homo sapiens) (UniProt P06213); assay: Inhibition of human IR at 1 uM after 30 mins by fluorescence assay in presence of ATP
[17] = molecular target: Insulin-like growth factor 1 receptor (Homo sapiens) (UniProt P08069); assay: Inhibition of human IGF1R at 1 uM after 30 mins by fluorescence assay in presence of ATP
[18] = molecular target: Serine/threonine-protein kinase Chk2 (Homo sapiens) (UniProt O96017); assay: Inhibition of human CHK2 at 1 uM after 30 mins by fluorescence assay in presence of ATP
[19] = molecular target: Protein-tyrosine kinase 2-beta (Homo sapiens) (UniProt Q14289); assay: Inhibition of human PYK2 at 1 uM after 30 mins by fluorescence assay in presence of ATP
NCI-H3122 [20] = assay: Antitumor activity against human NCI-H3122 cells xenografted in SCID mouse assessed as tumor growth inhibition at 50 mg/kg, po administered qd for 14 days; format: functional, organism-based
[21] = molecular target: T1, ALK tyrosine kinase receptor (Homo sapiens, UniProt Q9UM73); assay: Inhibition of wild type ALK (unknown origin) after 30 mins by HTRF assay
CYP3A4 = CYP3A4 (Homo sapiens, UniProt P08684); assay: Inhibition of CYP3A4 (unknown origin) at 10 uM; format: ADME
[22] = molecular target: Ribosomal protein S6 kinase alpha-1 (Homo sapiens) (UniProt Q15418); assay: Inhibition of human RSK1 at 1 uM after 30 mins by fluorescence assay in presence of ATP
[23] = molecular target: Activated CDC42 kinase 1 (Homo sapiens) (UniProt Q07912); assay: Inhibition of human ACK1 at 1 uM after 30 mins by fluorescence assay in presence of ATP
[24] = AUCinfinity in cannulated Sprague Dawley rat at 10 mg/kg administered through oral gavage by LC/MS/MS analysis; format: ADME, organism-based; design: dose 10 mg/kg, time infinity, route oral; conditions: in vivo
[25] = molecular target: Tyrosine-protein kinase Yes (Homo sapiens) (UniProt P07947); assay: Inhibition of human YES at 1 uM after 30 mins by fluorescence assay in presence of ATP
[26] = molecular target: Ephrin type-B receptor 1 (Homo sapiens) (UniProt P54762); assay: Inhibition of human EPHB1 at 1 uM after 30 mins by fluorescence assay in presence of ATP
[27] = molecular target: Ephrin type-A receptor 1 (Homo sapiens) (UniProt P21709); assay: Inhibition of human EPHA1 at 1 uM after 30 mins by fluorescence assay in presence of ATP
[28] = molecular target: Rho-associated protein kinase 2 (Homo sapiens) (UniProt O75116); assay: Inhibition of human ROCK2 at 1 uM after 30 mins by fluorescence assay in presence of ATP
[29] = molecular target: ALK tyrosine kinase receptor (Homo sapiens, UniProt Q9UM73, L1196M); assay: Inhibition of ALK L1196M mutant (unknown origin) after 30 mins by HTRF assay
[30] = molecular target: Fibroblast growth factor receptor 1 (Homo sapiens) (UniProt P11362); assay: Inhibition of human FGFR1 at 1 uM after 30 mins by fluorescence assay in presence of ATP
[31] = Cmax in cannulated Sprague Dawley rat at 10 mg/kg administered through oral gavage by LC/MS/MS analysis; format: ADME, organism-based; design: dose 10 mg/kg, route oral; conditions: in vivo
[32] = molecular target: Epidermal growth factor receptor (Homo sapiens) (UniProt P00533); assay: Inhibition of human EGFR at 1 uM after 30 mins by fluorescence assay in presence of ATP
Mus musculus [33] = assay: Toxicity in SCID mouse xenografted with human H3122 cells assessed as change in body weight at 50 mg/kg, po administered qd for 14 days measured during compound dosing; format: organism-based; conditions: in vivo, 336 h
[34] = molecular target: Aurora kinase A (Homo sapiens) (UniProt O14965); assay: Inhibition of human Aurora A at 1 uM after 30 mins by fluorescence assay in presence of ATP
[35] = molecular target: Aurora kinase B (Homo sapiens) (UniProt Q96GD4); assay: Inhibition of human Aurora B at 1 uM after 30 mins by fluorescence assay in presence of ATP
[36] = molecular target: Tyrosine-protein kinase Mer (Homo sapiens) (UniProt Q12866); assay: Inhibition of human MER at 1 uM after 30 mins by fluorescence assay in presence of ATP
[37] = molecular target: Receptor-type tyrosine-protein kinase FLT3 (Homo sapiens) (UniProt P36888); assay: Inhibition of human FLT3 at 1 uM after 30 mins by fluorescence assay in presence of ATP
CYP1A2 = CYP1A2 (Homo sapiens, UniProt P05177); assay: Inhibition of CYP1A2 (unknown origin) at 10 uM; format: ADME
[38] = molecular target: T1, ALK tyrosine kinase receptor; assay: Inhibition of human ALK at 1 uM after 30 mins by fluorescence assay in presence of ATP
Target sequence in this assay (Q9UM73 19-1620 limits assumed): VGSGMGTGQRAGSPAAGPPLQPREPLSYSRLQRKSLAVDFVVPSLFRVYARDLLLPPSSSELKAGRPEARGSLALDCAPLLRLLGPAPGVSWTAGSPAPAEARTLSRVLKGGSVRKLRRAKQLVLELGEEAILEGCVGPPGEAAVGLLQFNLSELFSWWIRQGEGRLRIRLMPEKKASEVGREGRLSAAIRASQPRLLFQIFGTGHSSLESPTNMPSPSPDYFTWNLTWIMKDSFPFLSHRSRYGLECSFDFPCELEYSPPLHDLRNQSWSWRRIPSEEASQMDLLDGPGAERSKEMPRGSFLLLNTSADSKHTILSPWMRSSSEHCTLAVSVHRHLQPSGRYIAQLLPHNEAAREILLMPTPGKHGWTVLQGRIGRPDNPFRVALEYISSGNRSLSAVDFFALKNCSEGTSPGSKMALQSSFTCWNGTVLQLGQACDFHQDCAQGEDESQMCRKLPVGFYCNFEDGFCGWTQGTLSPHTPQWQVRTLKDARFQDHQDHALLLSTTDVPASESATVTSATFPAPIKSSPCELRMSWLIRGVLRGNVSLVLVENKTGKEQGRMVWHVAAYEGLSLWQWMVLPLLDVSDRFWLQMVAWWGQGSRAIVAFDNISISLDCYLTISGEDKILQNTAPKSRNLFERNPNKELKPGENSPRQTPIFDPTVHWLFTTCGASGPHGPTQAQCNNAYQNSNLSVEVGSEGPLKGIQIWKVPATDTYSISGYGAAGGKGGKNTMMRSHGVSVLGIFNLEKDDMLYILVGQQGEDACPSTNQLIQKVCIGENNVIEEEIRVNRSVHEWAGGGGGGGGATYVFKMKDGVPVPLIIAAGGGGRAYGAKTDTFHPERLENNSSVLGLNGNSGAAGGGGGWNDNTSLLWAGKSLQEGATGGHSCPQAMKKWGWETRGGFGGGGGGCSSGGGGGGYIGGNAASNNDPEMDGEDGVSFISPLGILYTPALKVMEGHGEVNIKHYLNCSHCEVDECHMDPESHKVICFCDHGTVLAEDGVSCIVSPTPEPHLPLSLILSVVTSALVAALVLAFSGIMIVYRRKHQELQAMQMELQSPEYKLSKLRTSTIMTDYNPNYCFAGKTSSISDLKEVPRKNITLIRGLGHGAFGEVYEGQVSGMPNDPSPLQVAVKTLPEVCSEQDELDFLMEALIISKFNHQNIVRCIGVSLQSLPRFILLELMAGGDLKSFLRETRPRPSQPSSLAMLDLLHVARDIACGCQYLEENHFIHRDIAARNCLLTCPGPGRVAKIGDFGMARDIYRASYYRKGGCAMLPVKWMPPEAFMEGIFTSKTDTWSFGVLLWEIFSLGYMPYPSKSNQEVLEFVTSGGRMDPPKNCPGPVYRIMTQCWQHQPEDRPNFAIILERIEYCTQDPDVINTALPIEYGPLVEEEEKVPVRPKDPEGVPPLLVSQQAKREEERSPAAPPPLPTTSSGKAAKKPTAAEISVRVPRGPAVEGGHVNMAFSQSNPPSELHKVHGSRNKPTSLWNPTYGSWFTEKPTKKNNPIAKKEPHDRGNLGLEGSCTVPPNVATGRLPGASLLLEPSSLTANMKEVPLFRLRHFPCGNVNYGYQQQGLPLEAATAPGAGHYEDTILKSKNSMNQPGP

CYP2C9 = CYP2C9 (Homo sapiens, UniProt P11712); assay: Inhibition of CYP2C9 (unknown origin) at 10 uM; format: ADME
[39] = Metabolic stability of the compound in human liver microsomes assessed as compound remaining at 1 uM after 30 mins by LC/MS/MS analysis in the presence of NADPH; format: ADME; conditions: read-out: Stability

CYP3A4, sequence (P08684 whole entry): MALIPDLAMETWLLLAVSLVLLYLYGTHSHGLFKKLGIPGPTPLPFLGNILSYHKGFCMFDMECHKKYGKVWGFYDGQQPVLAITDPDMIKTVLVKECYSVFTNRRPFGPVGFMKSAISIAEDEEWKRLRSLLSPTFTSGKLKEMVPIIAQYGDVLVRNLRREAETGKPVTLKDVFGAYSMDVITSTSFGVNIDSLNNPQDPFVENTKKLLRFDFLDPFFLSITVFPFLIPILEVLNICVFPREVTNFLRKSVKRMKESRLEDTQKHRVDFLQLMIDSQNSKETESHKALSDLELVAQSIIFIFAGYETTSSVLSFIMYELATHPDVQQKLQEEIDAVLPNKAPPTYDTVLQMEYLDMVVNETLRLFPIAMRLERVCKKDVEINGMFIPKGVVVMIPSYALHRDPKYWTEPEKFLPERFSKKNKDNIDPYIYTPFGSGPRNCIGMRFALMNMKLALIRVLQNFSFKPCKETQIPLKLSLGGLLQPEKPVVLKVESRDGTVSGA
CYP2D6, sequence (P10635 whole entry): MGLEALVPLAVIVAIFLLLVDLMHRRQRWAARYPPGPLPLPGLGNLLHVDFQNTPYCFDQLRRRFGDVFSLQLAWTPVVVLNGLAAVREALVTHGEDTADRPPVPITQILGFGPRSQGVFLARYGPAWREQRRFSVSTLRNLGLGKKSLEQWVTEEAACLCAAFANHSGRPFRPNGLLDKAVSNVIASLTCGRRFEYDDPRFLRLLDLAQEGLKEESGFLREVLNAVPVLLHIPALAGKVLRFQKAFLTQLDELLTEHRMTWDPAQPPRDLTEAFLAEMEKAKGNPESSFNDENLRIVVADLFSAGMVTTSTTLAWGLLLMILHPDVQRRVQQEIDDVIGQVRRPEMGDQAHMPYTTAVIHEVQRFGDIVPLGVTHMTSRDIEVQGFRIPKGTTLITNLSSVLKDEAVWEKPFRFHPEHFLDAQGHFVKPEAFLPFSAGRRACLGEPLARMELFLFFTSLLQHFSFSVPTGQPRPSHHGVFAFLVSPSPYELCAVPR
CYP2C9, sequence (P11712 whole entry): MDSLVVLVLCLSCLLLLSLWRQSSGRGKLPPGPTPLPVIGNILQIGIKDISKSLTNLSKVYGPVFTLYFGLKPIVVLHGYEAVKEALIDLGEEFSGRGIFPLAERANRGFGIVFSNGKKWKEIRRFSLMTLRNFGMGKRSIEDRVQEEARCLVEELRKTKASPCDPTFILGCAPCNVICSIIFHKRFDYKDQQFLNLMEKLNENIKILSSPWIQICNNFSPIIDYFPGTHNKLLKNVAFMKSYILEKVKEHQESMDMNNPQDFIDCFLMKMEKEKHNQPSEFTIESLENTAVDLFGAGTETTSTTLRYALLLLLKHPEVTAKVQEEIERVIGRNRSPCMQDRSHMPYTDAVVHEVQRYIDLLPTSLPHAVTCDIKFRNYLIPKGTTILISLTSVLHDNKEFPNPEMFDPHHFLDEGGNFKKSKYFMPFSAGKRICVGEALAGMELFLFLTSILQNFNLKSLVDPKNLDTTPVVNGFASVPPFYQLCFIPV
EML4-ALK (Homo sapiens), sequence (Q9HC35 whole entry partner): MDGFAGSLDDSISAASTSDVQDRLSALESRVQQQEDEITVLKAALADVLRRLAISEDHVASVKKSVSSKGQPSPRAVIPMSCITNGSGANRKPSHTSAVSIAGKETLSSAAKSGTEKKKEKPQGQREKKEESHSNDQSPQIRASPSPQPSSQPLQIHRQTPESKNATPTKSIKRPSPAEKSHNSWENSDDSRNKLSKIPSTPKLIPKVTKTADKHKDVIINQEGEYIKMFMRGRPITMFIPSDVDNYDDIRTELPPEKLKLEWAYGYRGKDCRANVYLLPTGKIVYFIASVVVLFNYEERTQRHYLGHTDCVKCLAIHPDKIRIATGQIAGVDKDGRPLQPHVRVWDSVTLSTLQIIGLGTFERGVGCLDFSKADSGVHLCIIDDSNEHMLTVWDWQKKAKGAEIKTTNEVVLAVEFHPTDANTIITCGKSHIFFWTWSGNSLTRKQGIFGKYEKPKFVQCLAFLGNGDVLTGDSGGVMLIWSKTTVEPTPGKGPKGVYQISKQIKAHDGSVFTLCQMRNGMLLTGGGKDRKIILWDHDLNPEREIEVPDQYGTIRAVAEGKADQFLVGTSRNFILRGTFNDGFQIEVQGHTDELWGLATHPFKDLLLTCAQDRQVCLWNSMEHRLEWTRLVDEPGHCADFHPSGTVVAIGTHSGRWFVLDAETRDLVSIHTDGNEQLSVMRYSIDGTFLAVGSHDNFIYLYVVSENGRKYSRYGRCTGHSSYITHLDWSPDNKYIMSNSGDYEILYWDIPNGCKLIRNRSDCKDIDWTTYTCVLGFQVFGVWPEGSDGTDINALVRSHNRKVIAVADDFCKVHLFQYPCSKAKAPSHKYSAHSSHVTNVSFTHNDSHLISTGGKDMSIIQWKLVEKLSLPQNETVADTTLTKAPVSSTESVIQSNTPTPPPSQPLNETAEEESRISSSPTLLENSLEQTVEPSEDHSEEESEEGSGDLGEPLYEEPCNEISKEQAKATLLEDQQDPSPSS
EML4-ALK (Homo sapiens), sequence (Q9UM73 19-1620 limits assumed): as the sequence (Q9UM73 19-1620 limits assumed) above
ALK tyrosine kinase receptor (Homo sapiens, UniProt Q9UM73, L1196M), sequence (Q9UM73 19-1620 L1196M limits assumed): as the sequence (Q9UM73 19-1620 limits assumed) above, with L1178M counted along it
CYP1A2, sequence (P05177 whole entry): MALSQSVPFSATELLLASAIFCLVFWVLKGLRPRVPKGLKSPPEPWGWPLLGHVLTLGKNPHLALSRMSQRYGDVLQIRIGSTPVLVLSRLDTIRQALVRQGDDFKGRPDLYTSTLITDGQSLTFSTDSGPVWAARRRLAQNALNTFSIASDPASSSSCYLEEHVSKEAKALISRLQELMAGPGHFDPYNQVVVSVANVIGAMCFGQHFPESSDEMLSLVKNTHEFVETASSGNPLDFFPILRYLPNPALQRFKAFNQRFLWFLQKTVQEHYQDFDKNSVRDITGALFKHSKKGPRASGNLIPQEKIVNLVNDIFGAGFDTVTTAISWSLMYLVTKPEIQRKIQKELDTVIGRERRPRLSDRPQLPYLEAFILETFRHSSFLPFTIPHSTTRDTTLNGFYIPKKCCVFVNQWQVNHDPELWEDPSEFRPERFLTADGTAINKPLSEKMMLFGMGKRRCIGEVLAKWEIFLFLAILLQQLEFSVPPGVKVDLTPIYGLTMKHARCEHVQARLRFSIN
Testis-specific serine/threonine-protein kinase 1 (Homo sapiens), sequence (Q9BXA7 whole entry): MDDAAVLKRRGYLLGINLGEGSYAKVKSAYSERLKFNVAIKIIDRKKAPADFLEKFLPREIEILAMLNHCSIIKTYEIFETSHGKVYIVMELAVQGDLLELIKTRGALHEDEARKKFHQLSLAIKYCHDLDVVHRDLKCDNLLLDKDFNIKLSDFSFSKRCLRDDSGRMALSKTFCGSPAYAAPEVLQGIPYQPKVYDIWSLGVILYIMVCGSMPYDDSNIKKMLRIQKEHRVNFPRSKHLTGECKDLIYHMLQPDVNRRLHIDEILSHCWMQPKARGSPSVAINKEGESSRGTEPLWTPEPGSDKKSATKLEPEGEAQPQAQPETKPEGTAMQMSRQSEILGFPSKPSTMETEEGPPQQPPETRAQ

- AUC(0-t) [1]: 8750 ng·h/mL
- inhibition [2]: 93%
- inhibition [3]: 100%
- Tmax [4]: 5.33 h
- inhibition [5]: 97%
- inhibition [6]: 96%
- inhibition [7]: 96%
- inhibition [9]: 96%
- remaining at 0.5 h, 1 µM [10]: 23%
- inhibition [11]: 95%
- half-life [12]: 9.5 h
- inhibition at 10 µM (CYP2C19): 72%
- inhibition [13]: 96%
- inhibition [14]: 96%
- inhibition at 10 µM (CYP2D6): 31%
- inhibition [16]: 100%
- inhibition [17]: 100%
- inhibition [18]: 99%
- inhibition [19]: 98%
- IC50 [21]: 0.7 nM
- inhibition at 10 µM (CYP3A4): 97%
- inhibition [22]: 100%
- inhibition [23]: 100%
- AUC(0-inf) [24]: 10900 ng·h/mL
- inhibition [25]: 95%
- inhibition [26]: 92%
- inhibition [27]: 91%
- inhibition [28]: 92%
- IC50 [29]: 1.5 nM
- inhibition [30]: 100%
- Cmax [31]: 582 ng/mL
- inhibition [32]: 99%
- inhibition [34]: 99%
- inhibition [35]: 97%
- inhibition [36]: 100%
- inhibition [37]: 100%
- inhibition at 10 µM (CYP1A2): 9.5%
- inhibition [38]: 100%
- inhibition at 10 µM (CYP2C9): 38%
- remaining at 0.5 h, 1 µM [39]: 56%
Compound: COc1cc2c(cc1Nc1ncc(Cl)c(Nc3ccccc3S(=O)(=O)C(C)C)n1)CCC(N)C2(C)C (centres undefined)
- CC50 (EML4-ALK (Homo sapiens)): 16 nM
- TGI (NCI-H3122 [8]): Active
- CC50 (BaF3): 62 nM
- Activity (Mus musculus [15]): Non-toxic
- TGI (NCI-H3122 [20]): Active
- Activity (Mus musculus [33]): Non-toxic

- AUC(0-t) [1]: 3750 ng·h/mL
- Tmax [4]: 0.833 h
- remaining at 0.5 h, 1 µM [10]: 14%
- half-life [12]: 3.04 h
- inhibition at 10 µM (CYP2C19): 43.4%
- inhibition at 10 µM (CYP2D6): 11.4%
- IC50 [21]: 0.5 nM
- inhibition at 10 µM (CYP3A4): 47.5%
- AUC(0-inf) [24]: 3760 ng·h/mL
- IC50 [29]: 8.4 nM
- Cmax [31]: 1270 ng/mL
- inhibition at 10 µM (CYP1A2): 7.2%
- inhibition at 10 µM (CYP2C9): 17.1%
- remaining at 0.5 h, 1 µM [39]: 20%
Compound: COc1cc2c(cc1Nc1ncc(Cl)c(Nc3ccccc3S(=O)(=O)C(C)C)n1)CC/C(=N\N1CCN(C)CC1)C2(C)C
- CC50 (EML4-ALK (Homo sapiens)): 14 nM
- CC50 (BaF3): 66 nM
- TGI (NCI-H3122 [20]): Active
- Activity (Mus musculus [33]): Non-toxic
